The target in one series is T1, human P2X7 (UniProt Q99572).
T1 sequence (Q99572 1-595): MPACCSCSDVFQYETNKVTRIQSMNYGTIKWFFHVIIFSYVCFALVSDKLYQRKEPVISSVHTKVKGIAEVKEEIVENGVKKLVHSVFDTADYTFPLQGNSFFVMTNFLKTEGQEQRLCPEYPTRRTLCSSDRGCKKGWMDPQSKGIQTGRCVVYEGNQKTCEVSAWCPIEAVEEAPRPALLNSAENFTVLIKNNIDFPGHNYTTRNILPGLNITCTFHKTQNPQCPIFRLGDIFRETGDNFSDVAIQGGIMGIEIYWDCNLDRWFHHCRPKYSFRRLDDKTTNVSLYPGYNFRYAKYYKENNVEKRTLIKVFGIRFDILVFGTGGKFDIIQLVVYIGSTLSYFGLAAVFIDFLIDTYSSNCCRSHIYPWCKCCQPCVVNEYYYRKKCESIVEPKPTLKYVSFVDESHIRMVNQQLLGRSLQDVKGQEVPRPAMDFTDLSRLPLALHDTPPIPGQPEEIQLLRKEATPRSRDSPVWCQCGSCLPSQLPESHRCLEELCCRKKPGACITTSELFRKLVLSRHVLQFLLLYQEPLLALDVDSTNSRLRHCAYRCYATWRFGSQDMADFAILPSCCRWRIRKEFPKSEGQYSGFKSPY
Put plainly: Intracellular Calcium Flux (FLIPR) Assay. The class given is cell-based. The protocol: Intracellular Calcium Flux (FLIPR) Assay
Compound and Reagent Preparation
Stock solutions of compounds were prepared from powders as a 10 mM DMSO stock solution. These solutions were stored at RT during the two week period of these experiments to prevent freeze-thaw of the DMSO stocks. The DMSO stocks were added to the appropriate assay buffer at a concentration of 10 μM, and then diluted serially to the final concentrations that were tested. No observable precipitate was formed at any time during this process. The aqueous solutions of compounds as well as ATP (Sigma A7699) and BzATP (Sigma B6396) were prepared fresh for each day of experiment.
1321N1 cells stably expressing the full length human P2X7 gene (1321N1-hP2X7) and HEK293 cells stably expressing the full length rat P2X7 gene (HEK293-rP2X7) were obtained from the Roche Cell Culture Facility. 1321N1-hP2X7 cells were grown in Dulbecco's Modified Eagle's Medium (DMEM) high glucose supplemented with 10% FBS and […] G418. HEK293-rP2X7 cells were grown in DMEM/F-12 supplemented with 10% FBS, 1 mM CaCl2, 2 mM MgCl2, 2 mM L-Glutamine and […] G418. Cells were split such that they never became >70% confluent.
Intracellular Calcium Flux (FLIPR)
On the day prior to the experiment, 1321N1-hP2X7 or HEK293-rP2X7 cells were released into suspension with calcium-free PBS+Versene and washed by centrifugation with calcium-free PBS to remove the Versene. Cells were resuspended in growth medium at a density of 2.5×10^5 cells/mL and seeded into black walled, clear bottom 96 well plates (50,000 cells/well) approximately 18 hr prior to intracellular calcium flux experiments.
On the day of the experiment, plates were washed with FLIPR buffer (calcium- and magnesium-free Hank's Balanced Salt Solution (HBSS) supplemented with 10 mM Hepes, 2.5 mM probenecid and 2 mM calcium chloride) using a BIO-TEK 96 channel plate washer and incubated with […] fluo-3 dye at 37° C. for one hr. The dye was then removed by plate washing and the cells were allowed to equilibrate for 20 min at room temperature with antagonist or vehicle (FLIPR buffer). Agonist (100 μM BzATP final concentration for hP2X7; 5 μM BzATP final concentration or rP2X7) was added online with the FLIPR and fluorescence measurements made at 1 sec intervals for 60 sec followed by 3 sec intervals for a further 4 min (5 min total). A final addition of 5 μM ionomycin was made and the maximal BzATP-evoked fluorescence normalized to the maximal ionomycin-evoked fluorescence.
For orientation: Calcium assays in cells follow changes in intracellular calcium, usually with a dye or a luminescent sensor.

What is called pIC50 is the IC50 on a negative log10 scale, so that one unit is a factor of ten. A word on the melting point: it is the temperature of the solid-liquid transition.

In turn, `COc1cc(C)c(Nc2nnc3n2C(c2ccc(F)cc2)CSC3)cc1OC` (centres unmarked) [Compound 18, (4,5-Dimethoxy-2-methyl-phenyl)-[5-(4-fluoro-phenyl)-5,6-dihydro-8H-[1,2,4]triazolo[3,4-c][1,4]thiazin-3-yl]-amine] showed a melting point of 165 to 166 °C. The pIC50 at human P2X7 amounted to 7.58.
In the same order, the values of `COc1cc(C)c(Nc2nnc3n2C(c2ccc(F)cc2)CS(=O)(=O)C3)cc1OC` (centres unmarked) [Compound 19, (4,5-Dimethoxy-2-methyl-phenyl)-[5-(4-fluoro-phenyl)-7,7-dioxo-5,6,7,8-tetrahydro-7λ^6-[1,2,4]triazolo[3,4-c][1,4]thiazin-3-yl]-amine] are 226 to 227 °C and 6.96.
`Cc1cc(Cl)c(OCCO)cc1Nc1nnc2n1[C@H](c1ccc(F)cc1)COC2` [Compound 21, 2-{2-Chloro-5-[(R)-5-(4-fluoro-phenyl)-5,6-dihydro-8H-[1,2,4]triazolo[3,4-c][1,4]oxazin-3-ylamino]-4-methyl-phenoxy}-ethanol] yielded a melting point of 161 to 162 °C. For the same compound, the pIC50 at human P2X7 was found to be 7.59.
The like results for `Cc1cc2cnn(CCO)c2cc1Nc1nnc2n1[C@H](c1ccc(F)cc1)COC2` [Compound 39, 2-{6-[(R)-5-(4-Fluoro-phenyl)-5,6-dihydro-8H-[1,2,4]triazolo[3,4-c][1,4]oxazin-3-ylamino]-5-methyl-indazol-1-yl}-ethanol] were, in that order, 215 to 217 °C and 7.605.
Turning to `Cc1ccc(-c2ccnn(CCO)c2=O)cc1Nc1nnc2n1[C@H](c1ccc(F)cc1)COC2` [Compound 52, 4-{3-[(R)-5-(4-Fluoro-phenyl)-5,6-dihydro-8H-[1,2,4]triazolo[3,4-c][1,4]oxazin-3-ylamino]-4-methyl-phenyl}-2-(2-hydroxy-ethyl)-2H-pyridazin-3-one], the pIC50 at human P2X7 is 8.09.
With `O=C1NCCCN1c1ccc(Br)c(Nc2nnc3n2[C@H](c2ccc(F)cc2)COC3)c1` [Compound 54, 1-{4-Bromo-3-[(R)-5-(4-fluoro-phenyl)-5,6-dihydro-8H-[1,2,4]triazolo-[3,4-c][1,4]oxazin-3-ylamino]-phenyl}-tetrahydro-pyrimidin-2-one], the pIC50 at human P2X7 was found to be 7.325.
Still for that read-out and setting: in the case of `Cn1nccc(-c2ccc(F)c(Nc3nnc4n3[C@H](c3ccc(F)cc3)COC4)c2)c1=O` [Compound 55, 4-{4-Fluoro-3-[(R)-5-(4-fluoro-phenyl)-5,6-dihydro-8H-[1,2,4]triazolo[3,4-c][1,4]oxazin-3-ylamino]-phenyl}-2-methyl-2H-pyridazin-3-one] it was 8.035.

Source of the values: patent US8871760B2, “[1,2,4]triazolo[3,4-C][1,4]oxazines as P2X7 modulators” (Roche Palo Alto LLC, priority 2009, dated 2014).
